Laboratory results from publication PMC10548512 (Chemical Science, 2023).

How the values were obtained:
[1] = tested on: H1 ectodomain; details: pH 7.5
[2] = tested on: H1N1pdm09 virus (A/Netherlands/602/2009)

Molecule | Competition with fluorescein-labelled S5 for binding to H1 protein [1] | Infection inhibition in single-concentration screen [2] | IC50 ([2]; 1 h) [nM]
CC[C@H](C)[C@@H]1NC(=O)[C@H](CS)NC(=O)[C@H](CO)NC(=O)[C@H](CCCNC(=N)N)NC(=O)[C@H](CCCNC(=N)N)NC(=O)[C@H](Cc2ccc(O)cc2)NC(=O)[C@H](CCC(N)=O)NC(=O)[C@H](Cc2ccccc2)NC(=O)[C@H](CC(N)=O)NC(=O)[C@H](CC(C)C)NC(=O)[C@@H]2CSC(=N2)c2cc(ccn2)C[C@@H](C(=O)NCC(N)=O)NC(=O)[C@H](CC(N)=O)NC(=O)[C@H](CC(C)C)NC(=O)[C@H]([C@@H](C)CC)NC(=O)[C@H](CC(N)=O)NC(=O)[C@H](CC(C)C)NC1=O [M3] | compete | clear infection inhibition | 120
H-CLNFQYRRSCILNILNBG-NH2 (disulfide) [M4] |  | did not show inhibition | 
H-CYYFTHSIFNNLIVFHBG-NH2 (sidechain bridge or staple) [M8] | showed competition | minimal to no activity | 
